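Tested at 5 concentrations; 48 h exposure; 96-well plates; endpoints linearly interpolated, else capped at highest concentration. GI50 marks 50% less growth. At the TGI there is no net growth.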
Legend:
Assay in all cases: growth of human tumour cells (NCI), 48 h
DLD-1 colon = test system: DLD-1 colon
UACC-62 melanoma = test system: UACC-62 melanoma
DMS 114 small cell lung = test system: DMS 114 small cell lung
SF-268 CNS = test system: SF-268 CNS
RPMI-8226 leukemia = test system: RPMI-8226 leukemia
RXF 393 renal = test system: RXF 393 renal
786-0 renal = test system: 786-0 renal
SK-OV-3 ovarian = test system: SK-OV-3 ovarian
HL-60(TB) leukemia = test system: HL-60(TB) leukemia
U251 CNS = test system: U251 CNS

Structure (SMILES) | TGI (DLD-1 colon) | TGI (UACC-62 melanoma) | TGI (DMS 114 small cell lung) | TGI (SF-268 CNS) | TGI (RPMI-8226 leukemia) | TGI (RXF 393 renal) | TGI (786-0 renal) | TGI (SK-OV-3 ovarian) | TGI (HL-60(TB) leukemia) | TGI (U251 CNS) | GI50 (DLD-1 colon) | GI50 (UACC-62 melanoma) | GI50 (DMS 114 small cell lung) | GI50 (SF-268 CNS) | GI50 (RPMI-8226 leukemia) | GI50 (RXF 393 renal) | GI50 (786-0 renal) | GI50 (SK-OV-3 ovarian) | GI50 (HL-60(TB) leukemia) | GI50 (U251 CNS)
CC(C)=CC(=O)C/C(=N\NC(N)=S)C(=O)Nc1ccc(Cl)cc1 | > 100 µM | > 100 µM | > 100 µM | > 100 µM | > 100 µM | > 100 µM | > 100 µM | > 100 µM | > 100 µM | > 100 µM | – | – | – | – | – | – | – | – | – | –
COC(=O)/C=C1/CCC(C(=O)OC)N1 (stereo not given) | > 100 µM | > 100 µM | > 100 µM | > 100 µM | > 100 µM | > 100 µM | > 100 µM | > 100 µM | > 100 µM | > 100 µM | – | – | – | – | – | – | – | – | – | –
c1cc(N(CCn2cccn2)CCn2cccn2)cc(N(CCn2cccn2)CCn2cccn2)c1 | > 100 µM | > 100 µM | > 100 µM | > 100 µM | > 100 µM | > 100 µM | > 100 µM | > 100 µM | > 100 µM | > 100 µM | – | – | – | – | – | – | – | – | – | –
C=C(COC(C)=O)CC(OC(C)=O)c1ccccc1 (stereo not given) | > 100 µM | > 100 µM | > 100 µM | > 100 µM | > 100 µM | > 100 µM | > 100 µM | > 100 µM | > 100 µM | > 100 µM | – | – | – | – | – | – | – | – | – | –
Cc1nc(Nc2ccc(Cl)cc2)sc1C(=O)NNc1ccc([N+](=O)[O-])cc1[N+](=O)[O-] | 28 µM | 28.6 µM | 37.8 µM | 38.8 µM | 51.8 µM | 30.7 µM | 29.8 µM | 52.3 µM | 43.5 µM | 29.5 µM | – | – | – | – | – | – | – | – | – | –
CN(C)CC(C)(C)/C(=N\Nc1ccccc1)c1ccccc1 | > 100 µM | 40.8 µM | > 100 µM | > 100 µM | > 100 µM | > 100 µM | > 100 µM | 73.3 µM | 50.6 µM | > 100 µM | – | – | – | – | – | – | – | – | – | –
CC(=O)[O][Ga]([Cl])[O]C(C)=O | > 100 µM | > 100 µM | > 100 µM | > 100 µM | > 100 µM | > 100 µM | > 100 µM | > 100 µM | > 100 µM | > 100 µM | > 100 µM | > 100 µM | > 100 µM | > 100 µM | > 100 µM | > 100 µM | > 100 µM | > 100 µM | > 100 µM | > 100 µM
CN(C)CC(C)(C)C(=O)/C=C/c1ccc(/C=C/C(=O)C(C)(C)CN(C)C)cc1 | 1.01 µM | 3.17 µM | 2.76 µM | 2.86 µM | 5.47 µM | 2.66 µM | 3.08 µM | 8.12 µM | 4.17 µM | 3.04 µM | – | – | – | – | – | – | – | – | – | –
C[N-]c1nnnn1C.[Au+].c1ccc([PH+](c2ccccc2)c2ccccc2)cc1 | 5.02 µM | 6.87 µM | > 100 µM | 15.4 µM | 4.54 µM | 1.26 µM | 3.12 µM | 26.6 µM | 0.567 µM | 5.56 µM | 2.05 µM | 2.06 µM | 2.57 µM | 3.5 µM | 1.29 µM | 0.347 µM | 1.74 µM | 13 µM | 0.189 µM | 2.28 µM
O=C(O)CCCCCCC[C@H]1S[C@H]1CCCCCCO | > 100 µM | > 100 µM | > 100 µM | > 100 µM | > 100 µM | > 100 µM | > 100 µM | > 100 µM | > 100 µM | > 100 µM | – | – | – | – | – | – | – | – | – | –
COc1ccc(OC)c(/C(C)=N/NC(N)=S)c1 | > 100 µM | > 100 µM | > 100 µM | > 100 µM | > 100 µM | > 100 µM | > 100 µM | > 100 µM | > 100 µM | > 100 µM | – | – | – | – | – | – | – | – | – | –

Source: PubChem BioAssay (NCI)
